These results are taken from ChEMBL document CHEMBL5325426, “Structure-based discovery of potent USP28 inhibitors derived from Vismodegib” (Eur J Med Chem, 2023).

The test system of assay [1] is LS174T. Nature of the assay: Inhibition of colony formation in human LS174T cells at 10 uM by crystal violet staining assay. The class given is functional, cell-based.
For assay [2], the system named is LS174T. Put plainly: Inhibition of colony formation in human LS174T cells at 15 uM by crystal violet staining assay. The class given is functional, cell-based.
Assay [3] concerns the target T1, Ubiquitin carboxyl-terminal hydrolase 25 (Homo sapiens) (UniProt Q9UHP3).
T1 sequence (whole entry): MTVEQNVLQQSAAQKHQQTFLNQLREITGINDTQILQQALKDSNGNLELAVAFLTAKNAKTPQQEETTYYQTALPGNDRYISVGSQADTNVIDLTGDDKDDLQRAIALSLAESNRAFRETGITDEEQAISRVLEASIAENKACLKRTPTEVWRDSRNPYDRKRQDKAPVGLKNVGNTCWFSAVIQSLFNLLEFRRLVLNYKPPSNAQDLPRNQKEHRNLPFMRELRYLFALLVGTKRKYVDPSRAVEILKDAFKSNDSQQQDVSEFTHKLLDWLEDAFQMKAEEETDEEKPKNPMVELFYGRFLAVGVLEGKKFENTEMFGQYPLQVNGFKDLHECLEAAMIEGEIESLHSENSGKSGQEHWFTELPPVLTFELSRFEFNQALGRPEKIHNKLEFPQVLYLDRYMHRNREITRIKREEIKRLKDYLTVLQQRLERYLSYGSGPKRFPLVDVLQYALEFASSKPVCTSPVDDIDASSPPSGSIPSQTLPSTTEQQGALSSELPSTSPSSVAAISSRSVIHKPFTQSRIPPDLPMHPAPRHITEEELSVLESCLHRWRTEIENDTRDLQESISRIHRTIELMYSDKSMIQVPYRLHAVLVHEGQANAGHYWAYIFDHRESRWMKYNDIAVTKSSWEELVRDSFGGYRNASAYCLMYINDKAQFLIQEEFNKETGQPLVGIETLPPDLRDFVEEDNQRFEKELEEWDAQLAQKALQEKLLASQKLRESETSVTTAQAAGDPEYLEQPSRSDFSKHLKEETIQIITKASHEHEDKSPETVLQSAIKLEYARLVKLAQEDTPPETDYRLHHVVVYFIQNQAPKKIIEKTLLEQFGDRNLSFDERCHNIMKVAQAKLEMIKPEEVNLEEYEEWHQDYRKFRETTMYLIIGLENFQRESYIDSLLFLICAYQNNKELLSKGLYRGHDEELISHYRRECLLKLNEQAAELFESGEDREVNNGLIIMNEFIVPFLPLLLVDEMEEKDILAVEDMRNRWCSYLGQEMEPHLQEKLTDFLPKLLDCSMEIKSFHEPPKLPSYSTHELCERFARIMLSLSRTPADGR
Nature of the assay: Inhibition of USP25 in human LS174T cells assessed as downregulation of Tankyrase 1/2 protein level. Format: cell-based.

Assay [4] deals with LS174T. Put plainly: Inhibition of colony formation in human LS174T cells at 12.5 uM by crystal violet staining assay. The class given is functional, cell-based.

Activity calls are given as the source filed them. The rule behind the calls is not given here.

In the case of `CS(=O)(=O)c1ccc(C(=O)Nc2ccc(Cl)c(-c3ccc4c(c3)CCNC4)c2)c(Cl)c1`, in assay [1], the inhibition result is “Active”.

Regarding `CS(=O)(=O)c1ccc(C(=O)Nc2ccc(Cl)c(-c3ccc(C4(N)CC4)cc3)c2)c(Cl)c1`, the inhibition result in assay [2] is “Active”.

In the case of `CS(=O)(=O)c1ccc(C(=O)Nc2ccc(Cl)c(-c3ccc4c(c3)CNC4)c2)c(Cl)c1`, the inhibition result in assay [3] and in assay [4] was “Active” in each case.
